Laboratory results taken from publication PMC11435438, “Cyclin-Dependent Kinase 8 Represents a Positive Regulator of Cytomegalovirus Replication and a Novel Host Target for Antiviral Strategies” (Pharmaceutics, 2024).

How the values were obtained:
[1] = tested on: JCPyV strain Mad-4; assay: JCPyV replication assay in COS-7 cells (qPCR); format: cell-based, human polyomavirus; settings: Polyomavirus sp.; JCPyV strain Mad-4 in COS-7 cells, n = 1
Protocol: Primary human foreskin fibroblasts (HFFs; obtained from clinical samples at Children’s Hospital in Erlangen, Germany), guinea pig embryonic fibroblasts (GPEFs; generously provided by Mark R. Schleiss from the University of Minnesota in Minneapolis, MN, USA), and rat embryonic fibroblasts were cultivated in Eagle’s Minimal Essential Medium (MEM) supplemented with 1 × GlutaMAX™ (both from Thermo Fisher Scientific, Waltham, MA, USA), 10 µg/mL gentamicin, and 10% fetal bovine serum (FBS; Capricorn, Ebsdorfergrund, Germany). Human glioblastoma–astrocytoma cell line (U373) and mouse embryonic fibroblasts (MEFs), both obtained from ATCC (Manassas, VA, USA), and Vero cell sublineage 76 [26], were cultivated in Dulbecco’s modified Eagle’s medium (DMEM) supplemented with 1 × GlutaMAX™, 10 µg/mL gentamicin, and 10% fetal bovine serum. All cultured cells were maintained under the conditions of 37 °C temperature, 5% CO2, and 80% humidity. […]
A variety of antiherpesviral and non-herpesviral drug activities were assessed by the cell culture-based viral replication systems, as described elsewhere. […] After incubation at 37 °C for 3 days, iSLK.219 cells were fixed with 10% formalin, washed with PBS, and used for a quantitation of RFP reporter signal by PicoMD counting (ImageXpress® Pico device, Molecular Devices LLC, San Jose, CA, USA). […]

[2] = tested on: HCMV AD169; assay: Western blot analysis of HCMV protein expression in infected HFFs; format: cell-based, human cytomegalovirus; settings: 30 nM, HCMV AD169 MOI 0.1, 5 d and 7 d p.i.
Protocol: (§1) Western blot (Wb) analyses were performed as previously described using total lysates prepared from infected and mock-infected HFFs. For this purpose, HFFs were seeded at 3 × 10^5 cells/6-well and used for infection with HCMV AD169, or other viruses as indicated, then treated with compounds or solvent control. At the given time points of infection, the total lysates were prepared and used for separation on standard SDS-PAGE/Wb procedures. For Wb staining, antibodies specific for CDK8 (A302-501A, Bethyl Laboratories, Montgomery, TX, USA); viral proteins such as mAb-IE1, mAb-UL44, mAb-pp28, and mAb-MCP (kindly provided by S. Jonjic and T. Lenac Rovis, Rijeka, Croatia); as well as mAb-β-actin as a house-keeping protein and loading control (A5441, Sigma Aldrich, St. Louis, MO, USA) were used, followed by incubation and staining with the appropriate HRP-conjugated secondary antibodies.

[3] = tested on: HCMV AD169-UL50-HA; assay: Virus entry analysis, pre-post-incubation versus post-incubation (Western blot); format: cell-based, human cytomegalovirus; settings: CCT 5 nM and 15 nM, HFFs, MOI 0.01, 7 d p.i.
Protocol: as §1

**Q.** With `CN(C)C(=O)Cn1cc(-c2ccc(-c3cncc4ccccc34)cc2)cn1` [BI-1347] as the compound, how does the EC50 [1] read?
**A.** 860 ± 1550 nM

**Q.** What does the source list for `Cn1ncc2cc(-c3cnc(N)c(Cl)c3N3CCC4(CCNC4=O)CC3)ccc21` [CCT-151921]?
**A.** EC50 [1]: 3670 ± 3000 nM; viral late (L) protein level (pp28), Western blot [2]: complete inhibition; effect at the stage of virus entry [3]: does not act at the stage of virus entry
